For series [1], the species on record is Homo sapiens. Kind of series: Downregulation of serum LDL-C level in human at 2000 mg bid for 7 days. The class given is functional. To be noted: time 7.0 day.
For series [2], the system named is Mus musculus. Put plainly: Effect on Aacas mRNA level in liver of diet-induced obese C57BL/6 mouse model harboring AMPKalpha LS-/- at 200 mg/kg, po for 4 weeks by GO analysis. The class given is functional, organism-based.
The subject of series [3] is Mus musculus. Put plainly: Lipid lowering effect on high-fat diet-fed C57BL/6J mouse assessed as decrease in serum LDL-C level at 40 mg/kg/day, po administered via gavage measured after 7 days relative to control. To be noted: time 7 day. Further details: scale not given: the % may be the effect or the level left. The class given is functional.
For series [4], the system named is Mus musculus. Put plainly: Downregulation of Mogat1 mRNA level in liver of high-fat diet-fed C57BL/6 mouse model at 200 mg/kg, po for 4 weeks by GO analysis. Format: functional, organism-based.
For series [5], the system named is Mus musculus. Kind of series: Downregulation of Cidea mRNA level in liver of high-fat diet-fed C57BL/6 mouse model at 200 mg/kg, po for 4 weeks by GO analysis. The class given is functional, organism-based.
Series [6] deals with Mus musculus. Put plainly: Downregulation of Dhcr7 mRNA level in liver of high-fat diet-fed C57BL/6 mouse model at 200 mg/kg, po for 4 weeks by GO analysis. Format: functional, organism-based.
Series [7] concerns the target AMP-activated protein kinase (AMPK) alpha-1/beta-1/gamma-1 (Homo sapiens) (UniProt P54619+Q9Y478+Q13131). Kind of series: Activation of AMPK alpha1/AMPKbeta1/AMPKgamma1 (unknown origin) using SAMS peptide as substrate at. To be noted: filed as activator, dose < 70.3 µM, time 20.0 min. Format: protein-complex assay.
For series [8], the system named is Mus musculus. Kind of series: Downregulation of Mvd mRNA level in liver of high-fat diet-fed C57BL/6 mouse model at 200 mg/kg, po for 4 weeks by GO analysis. The class given is functional, organism-based.
The subject of series [9] is Mus musculus. Kind of series: Downregulation of Pcsk9 mRNA level in liver of high-fat diet-fed C57BL/6 mouse model at 200 mg/kg, po for 4 weeks by GO analysis. Format: functional, organism-based.
Series [10] in a line: Acute toxicity in golden hamster administered orally measured for 14 days. Also noted: species or system Mesocricetus auratus. To be noted: in vivo, route po, time 14 day.
Series [11] has as its system Syrian golden hamster. Put plainly: Lipid lowering effect on high-fat diet-fed golden hamster assessed as decrease in serum TG level administered orally once daily via gavage measured after 4 weeks measured after 4 weeks. To be noted: Mesocricetus auratus, dose 50-200 mg/kg, route po. The class given is functional, organism-based.
Series [12] deals with Mus musculus. Kind of series: Effect on Ccr2 mRNA level in liver of diet-induced obese C57BL/6 mouse model harboring AMPKalpha LS-/- at 200 mg/kg, po for 4 weeks by GO analysis. Format: functional, organism-based.
The test system of series [13] is Syrian golden hamster. Kind of series: Effect on serum TG level in high-fat diet-fed golden hamster harboring LDLR-/- at 50 to 200 mg/kg, po qd administered via gavage measured after 8 weeks. Format: functional, organism-based. To be noted: Mesocricetus auratus, dose 50-200 mg/kg.
The subject of series [14] is Syrian golden hamster. Put plainly: Lipid lowering effect on high-fat diet-fed golden hamster harboring LDLR-/- assessed as decrease in serum LDL-C level at 200 mg/kg, po qd administered via gavage measured after 8 weeks relative to control. Format: functional, Mesocricetus auratus. Further details: scale not given: the % may be the effect or the level left.
A short description of series [15]: Efflux ratio of apparent permeability across basal to apical side over apical to basal side in human Caco-2 cells at 2 uM incubated for 2 hrs by LC-MS/MS analysis. The class given is ADME, cell-based. Background: Caco-2 cells form a polarised layer with tight junctions and transporters.
A short description of series [16]: Tmax in female Rhesus monkey at 70 mg/kg, po or 7 mg/kg, iv measured for 36 hrs by LC-tandem MS analysis. Format: ADME, organism-based, Macaca mulatta. To be noted: in vivo.
Series [17] concerns Syrian golden hamster. Kind of series: Lipid lowering effect on high-fat diet-fed golden hamster assessed as decrease in TC level in liver at 100 to 200 mg/kg, po qd administered via gavage measured after 4 weeks. To be noted: Mesocricetus auratus, dose 100-200 mg/kg. The class given is functional, organism-based.
Series [18] deals with Mus musculus. Kind of series: Downregulation of Hspa5 mRNA level in liver of high-fat diet-fed C57BL/6 mouse model at 200 mg/kg, po for 4 weeks by GO analysis. Format: functional, organism-based.
Series [19] can be described thus: Apparent permeability across apical to basal side in human Caco-2 cells at 2 uM incubated for 2 hrs by LC-MS/MS analysis. Format: ADME, cell-based.
Series [20] is described as follows: Stability in human Caco-2 cells assessed as compound remaining at 10 ug/ml measured after 2 hrs by LC-MS/MS analysis. Format: ADME, cell-based. To be noted: at 10 µg/mL, read-out: Stability.
Series [21] has as its system Syrian golden hamster. Kind of series: Effect on liver weight in high-fat diet-fed golden hamster at 50 to 200 mg/kg, po qd administered via gavage measured after 4 weeks. The class given is functional, organism-based. To be noted: Mesocricetus auratus, dose 50-200 mg/kg.
Series [22] is described as follows: Efflux ratio of apparent permeability across basal to apical side over apical to basal side in human Caco-2 cells at 21 uM incubated for 2 hrs by LC-MS/MS analysis. The class given is ADME, cell-based.
Series [23] addresses AMP-activated protein kinase, AMPK (Homo sapiens) (UniProt P54646+O43741+P54619+Q9UGJ0+Q9Y478+Q13131+Q9UGI9). Kind of series: Activation of AMPK in human HepG2 cells assessed as decrease in intracellular lipid content at 10 uM incubated for 48 hrs by Oil Red O staining based analysis relative to control. The class given is cell-based. Further details: scale not given: the % may be the effect or the level left.

In series [24] the test system is Syrian golden hamster. Put plainly: Effect on body weight gain in high-fat diet-fed golden hamster at 50 to 200 mg/kg, po qd administered via gavage measured after 4 weeks. Format: functional, organism-based. To be noted: Mesocricetus auratus, dose 50-200 mg/kg.

Calls of active or inactive are those of the source. No cut-off for these calls is given here.

Sequence of AMP-activated protein kinase (AMPK) alpha-1/beta-1/gamma-1 (Homo sapiens) (P54619 whole entry): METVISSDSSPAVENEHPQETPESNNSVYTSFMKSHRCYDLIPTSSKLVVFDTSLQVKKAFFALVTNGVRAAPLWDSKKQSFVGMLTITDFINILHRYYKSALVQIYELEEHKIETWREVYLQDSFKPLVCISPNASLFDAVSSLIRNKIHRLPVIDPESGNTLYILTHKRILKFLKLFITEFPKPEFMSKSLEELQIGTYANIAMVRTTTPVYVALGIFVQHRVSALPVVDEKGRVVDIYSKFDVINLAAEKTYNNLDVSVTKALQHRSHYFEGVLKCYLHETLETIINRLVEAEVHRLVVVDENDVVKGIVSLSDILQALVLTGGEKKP
Sequence of AMP-activated protein kinase (AMPK) alpha-1/beta-1/gamma-1 (Homo sapiens) (Q13131 whole entry partner): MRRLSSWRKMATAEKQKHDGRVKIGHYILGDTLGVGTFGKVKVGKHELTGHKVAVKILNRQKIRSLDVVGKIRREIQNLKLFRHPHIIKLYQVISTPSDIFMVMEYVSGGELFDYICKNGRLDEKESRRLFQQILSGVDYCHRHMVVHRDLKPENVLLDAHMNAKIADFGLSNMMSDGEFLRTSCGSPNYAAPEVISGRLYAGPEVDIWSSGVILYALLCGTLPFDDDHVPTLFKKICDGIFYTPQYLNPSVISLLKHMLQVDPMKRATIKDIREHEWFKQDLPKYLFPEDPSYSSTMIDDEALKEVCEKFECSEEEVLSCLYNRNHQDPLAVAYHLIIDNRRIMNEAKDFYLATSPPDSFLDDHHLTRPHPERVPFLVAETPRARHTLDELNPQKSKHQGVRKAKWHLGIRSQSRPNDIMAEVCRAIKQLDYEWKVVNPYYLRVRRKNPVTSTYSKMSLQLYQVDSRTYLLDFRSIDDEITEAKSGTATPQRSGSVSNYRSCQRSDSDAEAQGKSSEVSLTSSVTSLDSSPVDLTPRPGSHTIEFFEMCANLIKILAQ
Sequence of AMP-activated protein kinase (AMPK) alpha-1/beta-1/gamma-1 (Homo sapiens) (Q9Y478 2-270 partner limits assumed): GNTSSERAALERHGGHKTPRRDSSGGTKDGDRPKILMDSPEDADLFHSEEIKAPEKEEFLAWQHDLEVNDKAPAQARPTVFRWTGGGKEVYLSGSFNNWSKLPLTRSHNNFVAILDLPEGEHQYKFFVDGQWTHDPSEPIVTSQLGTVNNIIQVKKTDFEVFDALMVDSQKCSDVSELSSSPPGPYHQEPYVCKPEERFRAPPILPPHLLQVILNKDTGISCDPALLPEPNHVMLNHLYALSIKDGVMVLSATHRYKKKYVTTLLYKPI

In the case of `CC(=O)OC[C@H]1O[C@@H](n2cnc3c(Nc4cccc(O)c4)ncnc32)[C@H](OC(C)=O)[C@@H]1OC(C)=O`, the result in [1], in series [4], in [5], in series [6], in series [7] and in series [8] was Active. Besides, the result in series [9], in [17] and in [18] was Active. Moreover, the result in series [2], in [12], in series [13], in series [21] and in series [24] was inactive. Moreover, the Activity in series [3] is 32.6%; in series [11], “Dose-Dependent Effect”; in series [14] it was 43.1%; in series [23], 64%. The LD50 at 336 h in [10] is > 20000 mg/kg. Besides, the efflux ratio at 2 h, 2 µM in [15] worked out at 2.1. Further, the Tmax in [16] worked out at 2.25 h. For the same compound, in series [19], the Papp A→B at 2 h, 2 µM amounted to 8.6 ×10⁻⁶ cm/s. Also, the remaining at 2 h, 10 ug/ml in series [20] came out at 63%. Besides, in [22], the efflux ratio at 2 h, 21 µM turned out to be 1.9.

For orientation: LD50 means the dose expected to kill half of the subjects tested. The efflux ratio is the permeability from basolateral to apical divided by that in the opposite direction, in the common usage. Broadly, the Tmax is the time from dosing to the highest level. Usually Papp A→B stands for the apparent permeability from the apical to the basolateral side of a cell layer.
